Results: patent US9956187B2 (priority 2014, dated 2018)
Where a name gives a salt, the structure may show the parent alone.

What was measured:
H1 = target: T1, H1 (Homo sapiens, UniProt P35367); experiment: biochemical; type: binding
T1 construct: expressed in transfected cells
Description: (§1) Evidence for interaction was based on the inhibition of the reference ligand-binding signal. […] Briefly, 50 μL aliquots of radioactive ligand (5 nM) were added to wells of a 96-well plate, which contained 25 μL of the reference or test ligands. We employed transfected cell lines expressing mainly human (unless otherwise specified) recombinant receptors, monoamine transporters, or ion channels for crude membrane preparation. Detailed information about our membrane preparation is well known in the art and can be obtained from publicly available protocol online. Crude membrane fractions containing the receptors were resuspended in standard binding buffer and 50 μL aliquots added to each well. The reactions were incubated at room temperature for 1.5 hours to allow for radioligand binding equilibration. Bound radioactivity was harvested by rapid filtration through a 0.3% polyethyleneimine-treated, 96-well filter mats using a 96-well Filtermate harvester. The dried filters were treated with melted scintillant and a Microbeta scintillation counter was utilized to measure the radioactivity retained on the filter.

KOR = target: T2, KOR (Homo sapiens, UniProt P41145); experiment: biochemical; type: binding
T2 construct: expressed in transfected cells
Description: as §1

MOR = target: T3, MOR (Homo sapiens, UniProt P35372); experiment: biochemical; type: binding
T3 construct: expressed in transfected cells
Description: as §1

human cloned NET = target: T4, human cloned NET (Homo sapiens, UniProt P23975); experiment: Norepinephrine reuptake assay in HEK 293 cells; type: cell-based; settings: mean±SE
T4 construct: expressed in transfected cells
Description: In brief, Human Embryonic Kidney 293 cells were plated in Poly-L-Lys (PLL) coated 384-well black clear bottom cell culture plates in DMEM+1% dFBS, at a density of 15,000 cells per well in a total volume of 40 μl. The cells were incubated for a minimum of 6 hours before use in the assays. The medium was removed and 20 μL of assay buffer (20 mM HEPES, 1×HBSS, pH 7.40) was added, followed by 5 μL of 5× drug solutions. The plate was incubated at 37° C. for 30 min. After the incubation, 25 μL of dye solution was added and fluorescence intensity was measured after […] at 37° C., using FlexStation II (bottom read mode, Excitation at 440 nm, Emission at 520 nm with 510 nm cut-off) from the Molecular Devices. […] The half maximal inhibitory concentration were determined and expressed as pIC50 (pIC50=−log (IC50)).

[1] = tested on: chronic constriction injury (CCI) rats; experiment: Thermal hyperalgesia, paw withdrawal latency in CCI model; type: in vivo, rat; settings: 3 mg/kg IP daily, days 1-10 after CCI, vs NS group, P<0.05
Description: (§2) CCI procedures on the sciatic nerve of male SD rats were performed as previously described. Briefly, after rats were anesthetized by i.p. injection of sodium pentobarbital (40 mg/kg), the right sciatic nerve of the mid-thigh level was exposed. Chromic gut 4-0 was loosely tied around the nerve for 4 ligatures with about 1 mm between knots. The ligation was performed to just barely reduce the diameter of sciatic nerve. […] In the sham group, the sciatic nerve was exposed without ligation. The incisions of rats were closed in layers. After recovery from anesthesia, rats were housed individually in the clear plastic cages with soft bedding covered with 3-6 cm of sawdust.
(§3) Same volume of normal saline (2 ml) was injected in the other two groups at the same time.
The paw withdrawal latency (PWL) to radiant heat was used to evaluate thermal hyperalgesia for nociceptive response as previously described. Rats were placed in transparent plexiglass cage (23×18×13 cm) with a piece of 3-mm-thick glass floor and received heat radiation after acclimating to the environments for 30 minutes. […] A digital timer automatically measured the duration between the starting of heat and the paw withdrawal, which was considered as the PWL. The PWL was measured in 0.1 second and a maximum of 20 seconds exposure to radiation was set to avoid injury. […]

[2] = tested on: chronic constriction injury (CCI) rats; experiment: Tactile allodynia, paw withdrawal threshold in CCI model; type: in vivo, rat; settings: 3 mg/kg IP daily, days 1-10 after CCI, vs NS group, P<0.05
Description: as §2, §3
The paw withdrawal threshold (PWT) was used to evaluate mechanical allodynia for nociceptive response with Von Frey filaments. The rats were placed in transparent plexiglass cage with a wire mesh floor. After acclimating to their environments for 30 minutes, each filament was applied perpendicularly to the plantar surface of the right hind paw. The end point was determined as paw withdrawal accompanied by biting, head turning and/or licking. The force (in gram, g) needed for this reaction was recorded. […]

morphine dependent rats [3] = experiment: Astrocyte activation in nucleus accumbens; type: in vivo, rat
Sigma 1 = Sigma 1 (Homo sapiens, UniProt Q99720); experiment: Molecular target profiling; type: binding
[4] = Solubility in 20% cyclodextrin by HPLC; type: physicochemical; settings: aqueous with cosolvent or surfactant or cyclodextrin, thermodynamic from solid, room temperature
Text: It was filtered with 0.2 μm PTFE syringe filter after stirring for 24 hrs.

[5] = hydrobromide salt; cited from earlier work
kappa opioid receptor [6] = target: T5, kappa opioid receptor (Homo sapiens, UniProt P41145); type: binding; parameters: expressed in transfected cells; settings: mean±SE; read-out: Ki KOR
Description: The secondary binding assay was performed only when the inhibition in the primary screen was over 50%. A secondary binding assay was utilized to determine the binding affinity for the identified receptor.
50 μL of a crude membrane fraction of cells expressing the respective receptors were applied to each well. Reaction incubation, harvesting and radioactivity measurement from the primary assay were repeated. Affinity is expressed as pKi (−log Ki).

morphine dependent rats [7] = experiment: Morphine withdrawal syndrome scoring
Description: (1) The same volumes of normal saline (NS) were received subcutaneously in the naïve group. All other interventional drugs are administered by intraperitoneal injection.

[8] = Solubilizing dezocine in formulations
Description: All further solutions were created at about pH 4. […] No higher concentrations were attempted with this formulation.

kappa opioid receptor [9] = target: T5, kappa opioid receptor; type: biochemical; parameters: purchased Millipore (Billerica, Mass.); host or cells: Chem-5 mammalian cell line; settings: ligand alone
Description: Membrane preparations of recombinant human kappa opioid receptor expressed in the mammalian cell line Chem-5 were obtained from Millipore (Billerica, Mass.). The effects of specific kappa opioid receptor ligands on the activation of the recombinant receptor were investigated by measuring G protein activation in vitro.
The assay reports the initial rates of activation of heterotrimeric G proteins (Gαii1β1γ2) on an agonist-bound receptor by measuring the accumulation of [^35S]-GTPγS (non-hydrolyzable analog of GTP) bound to the activated Gαi1 subunit. […] The G protein activation assay was conducted as follows (final concentrations in 50 μL reaction mixture are given in parentheses): the membrane sample was diluted into ice-cold 10 mM 3-(N-morpholino)propanesulfonic acid (MOPS) buffer to reach a protein concentration of 40 ng/μL. 10 μL of the diluted dispersion were dispensed into pre-siliconized glass tubes and mixed with the ligand in MOPS buffer containing 0.1% (w/v) BSA. Upon addition of a mixture of Gαi1 (100 nM) and Gβ1γ2 (500 nM), the tubes were incubated on ice for 30 minutes. The reaction was started by addition of MOPS buffer pH=7.5 (50 mM), EDTA (1 mM), MgCl2 (3 mM), GDP (4 μM), BSA (0.3% w/v), NaCl (100 mM), DTT (1 mM), and [^35S]-GTPγS (5 nM, 1250 Ci/mmol) followed by rapid transfer of the tubes to a water bath at 30° C. The incubation continued for 45 minutes. The reaction was terminated by addition of 2 mL of ice-cold stop solution, TNMg (20 mM Tris-HCl pH=8.0, 100 mM NaCl, and 25 mM MgCl2). The reaction mixture was rapidly filtered through nitrocellulose filters (Millipore). Filters were washed four times with 2 mL each of cold TNMg buffer, dried, placed in scintillation vials filled with ScintiSafe Econo F scintillation liquid (Fisher, Waltham, Mass.), and the radioactivity counted. Duplicate samples corresponding to every ligand concentration point were counted.

T5 sequence (P41145 whole entry): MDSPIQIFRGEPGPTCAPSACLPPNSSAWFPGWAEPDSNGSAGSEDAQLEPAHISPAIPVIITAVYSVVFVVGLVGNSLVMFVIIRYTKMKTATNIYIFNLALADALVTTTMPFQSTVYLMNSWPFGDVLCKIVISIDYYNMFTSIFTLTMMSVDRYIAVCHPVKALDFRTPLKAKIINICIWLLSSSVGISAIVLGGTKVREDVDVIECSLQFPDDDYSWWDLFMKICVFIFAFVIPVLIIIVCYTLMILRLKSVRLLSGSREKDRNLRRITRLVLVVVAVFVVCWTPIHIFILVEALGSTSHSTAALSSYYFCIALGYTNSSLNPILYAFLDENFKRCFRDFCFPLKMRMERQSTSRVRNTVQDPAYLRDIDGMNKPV
Sequence of Sigma 1 (Q99720 whole entry, species assumed): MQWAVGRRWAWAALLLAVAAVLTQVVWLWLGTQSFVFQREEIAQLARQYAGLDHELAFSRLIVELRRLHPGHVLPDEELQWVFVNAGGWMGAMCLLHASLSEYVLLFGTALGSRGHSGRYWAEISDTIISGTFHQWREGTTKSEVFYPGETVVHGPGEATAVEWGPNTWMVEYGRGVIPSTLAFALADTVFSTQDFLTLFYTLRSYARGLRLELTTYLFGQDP
T2 sequence (P41145 whole entry): as the sequence (P41145 whole entry) above
T1 sequence (P35367 whole entry): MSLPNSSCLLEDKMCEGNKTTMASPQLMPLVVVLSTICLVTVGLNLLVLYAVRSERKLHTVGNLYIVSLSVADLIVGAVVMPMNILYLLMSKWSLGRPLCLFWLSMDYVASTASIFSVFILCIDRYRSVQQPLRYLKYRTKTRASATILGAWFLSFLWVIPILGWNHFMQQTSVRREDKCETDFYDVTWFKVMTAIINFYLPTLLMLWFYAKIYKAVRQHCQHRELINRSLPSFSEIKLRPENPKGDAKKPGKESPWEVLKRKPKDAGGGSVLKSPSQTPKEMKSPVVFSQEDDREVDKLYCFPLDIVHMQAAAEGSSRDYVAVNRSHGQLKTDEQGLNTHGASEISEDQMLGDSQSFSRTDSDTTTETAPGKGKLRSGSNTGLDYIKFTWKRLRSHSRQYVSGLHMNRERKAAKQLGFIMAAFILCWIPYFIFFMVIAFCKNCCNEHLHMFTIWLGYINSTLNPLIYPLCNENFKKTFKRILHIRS
T4 sequence (P23975 whole entry): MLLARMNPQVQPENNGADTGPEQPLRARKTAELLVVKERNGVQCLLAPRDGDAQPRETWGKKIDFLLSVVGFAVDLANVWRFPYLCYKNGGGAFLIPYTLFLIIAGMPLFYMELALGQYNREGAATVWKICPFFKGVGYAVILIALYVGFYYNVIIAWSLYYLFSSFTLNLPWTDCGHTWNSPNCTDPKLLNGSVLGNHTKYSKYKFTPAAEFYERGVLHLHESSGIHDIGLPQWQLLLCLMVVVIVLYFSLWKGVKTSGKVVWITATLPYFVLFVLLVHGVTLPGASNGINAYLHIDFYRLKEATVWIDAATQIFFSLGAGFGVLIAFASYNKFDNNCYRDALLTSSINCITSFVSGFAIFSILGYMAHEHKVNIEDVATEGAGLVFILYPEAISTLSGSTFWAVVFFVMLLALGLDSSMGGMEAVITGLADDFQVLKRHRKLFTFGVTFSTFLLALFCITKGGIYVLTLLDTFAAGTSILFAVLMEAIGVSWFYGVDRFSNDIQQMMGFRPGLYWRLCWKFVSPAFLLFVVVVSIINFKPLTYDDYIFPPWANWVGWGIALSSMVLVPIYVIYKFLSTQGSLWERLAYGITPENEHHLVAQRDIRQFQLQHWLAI
T3 sequence (P35372 whole entry): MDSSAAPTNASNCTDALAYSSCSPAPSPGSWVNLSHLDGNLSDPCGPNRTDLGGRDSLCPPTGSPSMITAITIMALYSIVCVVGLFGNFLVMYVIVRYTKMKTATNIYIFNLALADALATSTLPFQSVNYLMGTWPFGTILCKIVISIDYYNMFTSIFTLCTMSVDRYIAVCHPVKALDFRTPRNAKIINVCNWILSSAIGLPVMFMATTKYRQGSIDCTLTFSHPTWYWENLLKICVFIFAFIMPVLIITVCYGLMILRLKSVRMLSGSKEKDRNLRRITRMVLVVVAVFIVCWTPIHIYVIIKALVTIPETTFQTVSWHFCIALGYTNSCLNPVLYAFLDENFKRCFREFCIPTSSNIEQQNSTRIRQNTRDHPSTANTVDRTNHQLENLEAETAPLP

Compound: C[C@@]12CCCCC[C@@H](Cc3ccc(O)cc31)[C@@H]2N [Dezocine, (−)-13β-amino-5,6,7,8,9,10,11,12-octahydro-5α-methyl-5,11-methanobenxocyclodecen-31-ol, hydrobromide]
- inhibition at 10 µM (H1): 20.7%
- inhibition at 10 µM (KOR): 91.3%
- inhibition at 10 µM (MOR): 89.6%
- pIC50 at NET (norepinephrine reuptake) (human cloned NET): 5.68±0.11
- paw withdrawal latency (PWL) [1]: significantly improved
- paw withdrawal threshold (PWT) [2]: increased markedly
- astrocyte activation in nucleus accumbens (morphine dependent rats [3]): significantly inhibited
- interaction with sigma 1 receptor (Sigma 1): interact with sigma 1 receptor
- solubility at 24 h ([4]; 20% 2-Hydroxypropyl-β-cyclodextrin (HPBCD)): 18 ± 1 mg/mL
- solubility at 24 h ([4]; 20% 2-Hydroxypropyl-γ-cyclodextrin (HPGCD)): 24 ± 1 mg/mL
- solubility of the salt [5]: 20 mg/mL
- Ki (kappa opioid receptor [6]): 31.9 ± 1.9 nM
- total score of morphine withdrawal symptoms (morphine dependent rats [7]; days 1-7, vs DMSO group, n=12, P<0.01 (FIG. 18)): alleviated the morphine withdrawal syndrome
- total score of morphine withdrawal symptoms (morphine dependent rats [7]; dezocine 5 mg/kg IP, days 1-7, vs NS group, P<0.01): decreased significantly
- Maximum Dezocine Concentration ([8]; 31% Propylene Glycol, 1% Lactic Acid, highest concentration attempted): 30 mg/mL
- solubility ([8]; 31% propylene glycol, 6% PVOH solution, pH 4, aqueous with cosolvent or surfactant or cyclodextrin): 10 mg/mL
- Maximum Dezocine Concentration ([8]; 50% Propylene Glycol): 2 mg/mL
- Maximum Dezocine Concentration ([8]; Ethanol (200-proof), highest concentration attempted): 1 mg/mL
- Maximum Dezocine Concentration ([8]; Propylene Glycol (pure)): 10 mg/mL
- Maximum Dezocine Concentration ([8]; Water): insoluble
- solubility ([8]; water): < 1 mg/mL
- G protein activation in the presence of kappa receptor (kappa opioid receptor [9]): no significant G protein activation
